Data taken from ChEMBL document CHEMBL3046499, “Synthesis of 2,2-diphenylpropionate derivatives and their effects on larval growth of the silkworm” (2000).
Activity calls are given as the source filed them. The calls are words filed in the database; no cut-off is given here.

How the values were obtained:
Bombyx mori [1] = assay: Insecticidal activity against fourth-instar larval stage of Bombyx mori Shunrei x Shongetsu assessed as fourth-instar larval duration time at 30 ppm administered through artificial diet (reference value: 5.1 +/- 0.2 days); type: functional
Bombyx mori [2] = assay: Insecticidal activity against fourth-instar larval stage of Bombyx mori Shunrei x Shongetsu assessed as fourth-instar larval duration time at 100 ppm administered through artificial diet (reference value: 5.1 +/- 0.2 days); type: functional
Bombyx mori [3] = assay: Insecticidal activity against fourth-instar larval stage of Bombyx mori Shunrei x Shongetsu assessed as delay in increase of hemolymph 20-hydroxyecdysone level at 50 ppm administered through artificial diet measured for 5 days post third ecdysis by ELISA relative to acetone-treated control; type: functional, organism-based

Structure (SMILES)	Time (Bombyx mori [1])	Time (Bombyx mori [2])	Activity (Bombyx mori [3])
CCN1CCN(CCCCOC(=O)C(C)(c2ccccc2)c2ccccc2)CC1	5.6 days	6.1 days	–
CC(C(=O)OCCCN1CCCC1)(c1ccccc1)c1ccccc1	5.2 days	6 days	–
CCN(CC)CCCOC(=O)C(C)(c1ccccc1)c1ccccc1	5.1 days	5.2 days	–
CC(C(=O)OCCCN1CCCCC1)(c1ccccc1)c1ccccc1	5.1 days	7.4 days	–
CN1[C@@H]2CC[C@H]1CC(OC(=O)[C@H](CO)c1ccccc1)C2 (stereo partly drawn) [ENDO-ATROPINE]	5.2 days	6.3 days	–
CC(C(=O)OCCCN1CCOCC1)(c1ccccc1)c1ccccc1	5 days	6.1 days	–
CCN1CCN(CCCCCOC(=O)C(C)(c2ccccc2)c2ccccc2)CC1	5.1 days	5.8 days	–
CCN1CCN(CCCOC(=O)C(C)(c2ccccc2)c2ccccc2)CC1	6.5 days	7.2 days	Active
CN1C2CCC1CC(OC(=O)C(C)(c1ccccc1)c1ccccc1)C2 (stereo unspecified)	6.1 days	–	–
CCN1CCN(CCOC(=O)C(C)(c2ccccc2)c2ccccc2)CC1	5.1 days	6.2 days	–
CCN1CCN(CCCCCCOC(=O)C(C)(c2ccccc2)c2ccccc2)CC1	4.7 days	4.5 days	–
CN1CCN(CCCOC(=O)C(C)(c2ccccc2)c2ccccc2)CC1	6.9 days	7.5 days	–
CN(CCCOC(=O)C(C)(c1ccccc1)c1ccccc1)C1CCCCC1	5 days	5.6 days	–
